Experimental findings from publication PMC8972196, “A Set of Experimentally Validated Decoys for the Human CC Chemokine Receptor 7 (CCR7) Obtained by Virtual Screening” (Frontiers in Pharmacology, 2022) are described below.

This assay has as its target T1, human CCR7 (Homo sapiens, UniProt P32248).
T1 construct: expressed in transfected cells
T1 sequence (P32248 25-378): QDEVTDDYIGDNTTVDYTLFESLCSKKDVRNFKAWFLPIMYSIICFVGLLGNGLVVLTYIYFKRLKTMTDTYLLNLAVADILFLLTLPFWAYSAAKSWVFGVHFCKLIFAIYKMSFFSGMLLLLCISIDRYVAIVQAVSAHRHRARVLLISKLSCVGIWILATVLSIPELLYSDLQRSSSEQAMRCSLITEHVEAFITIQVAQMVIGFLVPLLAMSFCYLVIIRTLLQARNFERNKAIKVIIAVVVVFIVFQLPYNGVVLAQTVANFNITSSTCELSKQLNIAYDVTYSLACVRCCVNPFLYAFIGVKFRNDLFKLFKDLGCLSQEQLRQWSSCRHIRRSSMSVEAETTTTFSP
Description: CCL19-induced calcium mobilization assay, U87.CD4 cells expressing CCR7. Format: cell-based. The note with it: for IC50: read-out: IC50 [μM] block CCL19 induced calcium signaling. How it is done:
U87.CD4 cells that stably express either human CCR7, CXCR2, CCR5 or CXCR4 were seeded (20,000 cells/well) in gelatin-coated black-walled polystyrene 96-well plates with clear bottom and incubated overnight at 37°C and 5% CO2. […] Culture medium was removed, and cells were incubated for 45 min at room temperature in the dark. […] Exactly the same protocol was used to record calcium responses in Chinese hamster ovary (CHO)-K1 cells, upon stimulation with adenosine triphosphate (ATP, purchased from Sigma).

The mark [1] stands for this setting: CCL19 induced calcium signaling.
The mark [2] stands for this setting: classification as decoy or active on CCR7.
[3] abbreviates: CCL19-induced calcium signaling.
Setting [4] is: classification of tested compounds as decoy or active.

Where two headings read alike, the source gives them in different places. Where only a bound is given, the exact number is not on record here.

In the case of `COc1ccc(S(=O)(=O)Nc2ccccc2C(=O)N2CCOCC2)cc1C` [C260, Cc1cc(ccc1OC)S(=O)(=O)Nc2ccccc2C(=O)N3CCOCC3], the IC50 under setting [1] is more than 50 µM. In addition, the “Decoy – 0 Active – 1” value under setting [2] was determined as 0.
Regarding `Cc1ccccc1C(O)CNC(=O)NCCc1cccc(C(N)=O)c1` (centres unmarked) [C217, Cc1ccccc1C(O)CNC(=O)NCCc1cccc(C(N)=O)c1], the IC50 under setting [1] was more than 50 µM. Besides, the “Decoy – 0 Active – 1” value under setting [2] is 0.
Take `O=C1NCCN1CCNC(=S)Nc1cc(C(F)(F)F)cc(C(F)(F)F)c1` [C034, FC(F)(F)c1cc(NC(=S)NCCN2CCNC2=O)cc(c1)C(F)(F)F]: under setting [3], the IC50 was more than 30 µM. Also, the “Decoy – 0 Active – 1” value under setting [4] worked out at 0.
In the case of `CN(C)C(=O)c1ccc(Cl)c(NCC(=O)N(C)Cc2ccco2)c1` [C061, CN(C)C(=O)c1ccc(Cl)c(NCC(=O)N(C)Cc2ccco2)c1], the IC50 under setting [3] is more than 10 µM. Besides, under setting [4], the “Decoy – 0 Active – 1” value was 0.
Regarding `CCOC(=O)[C@H](NCC(=O)Nc1cccc(C(=O)N(C)C)c1)C(C)C` [C125, CCOC(=O)[C@H]([NH2+]CC(=O)Nc1cccc(C(=O)N(C)C)c1)C(C)C], the IC50 under setting [3] was more than 50 µM. For the same molecule, under setting [4], the “Decoy – 0 Active – 1” value was 0.
In the case of `COc1ccc(N(CC(O)CNCCC(C)C)S(=O)(=O)c2ccc(C)cc2)cc1` (centres unmarked) [C248, Cc1ccc(cc1)S(=O)(=O)N(CC(C[NH2+]CCC(C)C)O)c2ccc(cc2)OC], under setting [1], the concentration for half-maximal inhibition (IC50) is more than 50 µM. The “Decoy – 0 Active – 1” value under setting [2] was 0.
For `CN1CC[C@H](NC(=O)CN[C@@H](c2ccccc2)C(F)(F)F)C1=O` [C107, CN1CC[C@H](NC(=O)CN[C@@H](c2ccccc2)C(F)(F)F)C1=O], the IC50 under setting [3] is more than 50 µM. In addition, under setting [4], the “Decoy – 0 Active – 1” value was 0.
For `CC(=O)Nc1cccc(NCC(=O)N(Cc2ccc(C)o2)C2CC2)c1` [C054, CC(=O)Nc1cccc(NCC(=O)N(Cc2ccc(C)o2)C2CC2)c1], the half-maximal inhibitory concentration (IC50) under setting [3] is more than 10 µM. Moreover, under setting [4], the “Decoy – 0 Active – 1” value turned out to be 0.
With `Cc1ccc(S(=O)(=O)N(CC(O)CN2CCCCC2)c2ccccc2)cc1` (centres unmarked) [C244, Cc1ccc(cc1)S(=O)(=O)N(CC(C[NH+]2CCCCC2)O)c3ccccc3], the IC50 under setting [1] was more than 50 µM. Moreover, the “Decoy – 0 Active – 1” value under setting [2] is reported as 0.
Take `O=C([C@@H]1CCCO1)N1CCc2ncnc(NCCc3ccco3)c2CC1` [C086, O=C([C@@H]1CCCO1)N1CCc2ncnc(NCCc3ccco3)c2CC1]: the IC50 under setting [3] was more than 50 µM. Moreover, the “Decoy – 0 Active – 1” value under setting [4] is 0.
The matching figures for `CCOC(=O)c1c(C)c(CCC(=O)N[C@H](C)c2ccccc2)c(C)n1C` [C082, CCOC(=O)c1c(C)c(CCC(=O)N[C@H](C)c2ccccc2)c(C)n1C]: more than 50 µM and 0.
The matching figures for `Cc1ccc(CN(C(=O)CNc2ccc(C(N)=O)c(C)c2)C2CC2)o1` [C053, Cc1ccc(CN(C(=O)CNc2ccc(C(N)=O)c(C)c2)C2CC2)o1]: more than 10 µM and 0.
Consider `FC(F)(F)c1ccccc1NC(=S)Nc1ccn(Cc2ccc(Cl)cc2)n1` [C031, FC(F)(F)c1ccccc1NC(=S)Nc1ccn(Cc2ccc(Cl)cc2)n1], for which, under setting [3], the IC50 was more than 30 µM. For the same molecule, the “Decoy – 0 Active – 1” value under setting [4] was found to be 0.
Regarding `CC(C)C(CO)NC(=O)NC(c1cccc(F)c1F)C(F)(F)F` (centres unmarked) [C191, CC(C)C(CO)NC(=O)NC(c1cccc(F)c1F)C(F)(F)F], the half-maximal inhibitory concentration (IC50) under setting [1] was more than 50 µM. The “Decoy – 0 Active – 1” value under setting [2] stood at 0.
The matching figures for `COc1c[nH]c(C(=O)NC(c2cccnc2)C(F)(F)F)cc1=O` (centres unmarked) [C213, COc1c[nH]c(C(=O)NC(c2cccnc2)C(F)(F)F)cc1=O]: more than 50 µM and 0.
Turning to `O=C1CCC(C(=O)NC(c2ccc(F)cc2)C(F)(F)F)N1` (centres unmarked) [C204, O=C1CCC(C(=O)NC(c2ccc(F)cc2)C(F)(F)F)N1], the IC50 under setting [1] is more than 50 µM. For the same molecule, under setting [2], the “Decoy – 0 Active – 1” value is 0.
`Cc1ocnc1C(=O)N[C@@H]1CC(=O)N(Cc2ccc(F)cc2)C1` [C139, Cc1ocnc1C(=O)N[C@@H]1CC(=O)N(Cc2ccc(F)cc2)C1]: the IC50 under setting [3] is more than 50 µM. The “Decoy – 0 Active – 1” value under setting [4] came to 0.
`Cc1ccc2c(CCNc3nc4[nH]ncc4c(=O)[nH]3)cn(C)c2c1` [C206, Cc1ccc2c(CCNc3nc4[nH]ncc4c(=O)[nH]3)cn(C)c2c1]: under setting [1], the IC50 is more than 50 µM. In addition, the “Decoy – 0 Active – 1” value under setting [2] was 0.
In the case of `Cc1ccc(N2C(=O)C3C(C(=O)O)NC(c4ccccc4O)C3C2=O)cc1` (centres unmarked) [C186, Cc1ccc(N2C(=O)C3C(C(=O)[O-])[NH2+]C(c4ccccc4O)C3C2=O)cc1], the half-maximal inhibitory concentration (IC50) under setting [1] was more than 50 µM. Also, the “Decoy – 0 Active – 1” value under setting [2] is listed as 0.
For `O=c1[nH]c(NCC(O)c2ccc3ccccc3c2)nc2ccccc12` (centres unmarked) [C219, O=c1[nH]c(NCC(O)c2ccc3ccccc3c2)nc2ccccc12], in that order: more than 50 µM and 0.
Regarding `CC1CN(S(=O)(=O)c2ccc(CCC(=O)O)cc2)c2ccccc21` (centres unmarked) [C268, CC1CN(c2c1cccc2)S(=O)(=O)c3ccc(cc3)CCC(=O)[O-]], the IC50 under setting [1] is more than 50 µM. In addition, the “Decoy – 0 Active – 1” value under setting [2] turned out to be 0.
For `O=C(NC1CCC(C(=O)N2CCCCC2)C1)NC1C2Cc3cc(F)ccc3C21` (centres unmarked) [C227, O=C(NC1CCC(C(=O)N2CCCCC2)C1)NC1C2Cc3cc(F)ccc3C21], in that order: more than 50 µM and 0.
Regarding `CN(C)C(=O)c1cc(NCC(=O)NCc2ccco2)ccc1F` [C064, CN(C)C(=O)c1cc(NCC(=O)NCc2ccco2)ccc1F], the IC50 under setting [3] is more than 10 µM. In addition, the “Decoy – 0 Active – 1” value under setting [4] was 0.
For the molecule `CNC(=O)c1cccc(NC(=O)N2CC[C@@H](c3ccccc3)C2)c1C` [C098, CNC(=O)c1cccc(NC(=O)N2CC[C@@H](c3ccccc3)C2)c1C], the IC50 under setting [3] was more than 50 µM. Under setting [4], the “Decoy – 0 Active – 1” value worked out at 0.
For `Cn1ncc(NC(=S)Nc2ccccc2C(F)(F)F)c1C(N)=O` [C037, Cn1ncc(NC(=S)Nc2ccccc2C(F)(F)F)c1C(N)=O], in that order: more than 30 µM and 0.
Take `COc1ccc(S(=O)(=O)N(CC(=O)N2CCCC2)c2ccc(Cl)cc2)cc1` [C263, COc1ccc(cc1)S(=O)(=O)N(CC(=O)N2CCCC2)c3ccc(cc3)Cl]: under setting [1], the IC50 is more than 50 µM. For the same molecule, the “Decoy – 0 Active – 1” value under setting [2] came out at 0.
Consider `Cc1cccc(N[C@H]2CS(=O)(=O)C[C@H]2OC(=O)c2ccccc2)c1` [C121, Cc1cccc(N[C@H]2CS(=O)(=O)C[C@H]2OC(=O)c2ccccc2)c1], for which, under setting [3], the IC50 was more than 50 µM. Also, under setting [4], the “Decoy – 0 Active – 1” value is listed as 0.
With `O=C(CNc1c(NCc2ccc3c(c2)OCO3)c(=O)c1=O)N1CCCC1` [C010, O=C(CNc1c(NCc2ccc3c(c2)OCO3)c(=O)c1=O)N1CCCC1], the half-maximal inhibitory concentration (IC50) under setting [3] was more than 50 µM. Under setting [4], the “Decoy – 0 Active – 1” value was found to be 0.
On to `CCCC1(C(=O)O)CCN(C(=O)c2cccc(C)c2OC)CC1O` (centres unmarked) [C207, CCCC1(C(=O)[O-])CCN(C(=O)c2cccc(C)c2OC)CC1O], for which the IC50 under setting [1] was more than 50 µM. Under setting [2], the “Decoy – 0 Active – 1” value worked out at 0.
For the molecule `COC(=O)c1ccc([C@H]2CC(=O)Nc3c2cnn3Cc2ccco2)cc1` [C158, COC(=O)c1ccc([C@H]2CC(=O)Nc3c2cnn3Cc2ccco2)cc1], the IC50 under setting [3] was more than 50 µM. In addition, the “Decoy – 0 Active – 1” value under setting [4] is reported as 0.
With `COc1ccc(CCNC(=O)CN(c2ccc([N+](=O)[O-])cc2)S(=O)(=O)c2ccccc2)cc1` [C271, COc1ccc(cc1)CCNC(=O)CN(c2ccc(cc2)[N+](=O)[O-])S(=O)(=O)c3ccccc3], the IC50 under setting [1] was more than 50 µM. Also, the “Decoy – 0 Active – 1” value under setting [2] is reported as 0.
